Test results reported in PMC7600679, “Benzoxazole-Based Metal Complexes to Reverse Multidrug Resistance in Bacteria” (Antibiotics, 2020).
Where two headings read alike, the source gives them in different places.

Key:
[1] = test system: MRC-5 human embryonal lung fibroblast cell line; test: Cytotoxicity assay (MTT); type: cell-based; conditions: 24 h
Procedure: The MRC-5 human embryonic lung fibroblast cell line (ATCC CCL-171; provider: LGC Promochem, Teddington, UK) was used in the experiments. The cells were cultivated in Eagle’s Minimal Essential Medium (EMEM; Sigma–Aldrich, St. Louis, MO, USA), supplemented with 1% non-essential amino acid mixture, 10% heat-inactivated fetal bovine serum, 2 mM L-glutamine, 1 mM Na-pyruvate, nystatin, and a penicillin–streptomycin mixture in concentrations of 100 U/L and 10 mg/L, respectively. The supplementary components were obtained from Sigma–Aldrich, St. Louis, MO, USA. The cell culture was kept in a humidified atmosphere (5% CO2, 95% air) at 37 °C.
The activity of increasing concentrations of the compounds on cell growth was determined in 96-well flat-bottomed microtiter plates by two-fold serial dilutions of the benzoxazole derivatives. The adherent human embryonic lung fibroblast cells (10^4/well) was seeded in EMEM medium in 96-well microtiter plates for 4 h prior to the assay. The serial dilutions of the compounds were made in a separate plate, and then pipetted to the plates containing the MRC-5 cell line. Culture plates were incubated at 37 °C for 24 h; at the end of the incubation period, 20 μL of MTT (3-(4,5-dimethylthiazol-2-yl)-2,5-diphenyltetrazolium bromide) solution (from a 5 mg/mL stock solution) was measured to each well. After the incubation at 37 °C for 4 h, 100 μL of sodium dodecyl sulfate (SDS) solution (10% SDS in 0.01 M HCl) was added to each well to dissolve the formazan crystals and the samples were further incubated at 37 °C overnight. Cell growth was calculated by measuring the OD at 540 nm (ref. 630 nm) with a Multiscan EX ELISA reader. The cytotoxicity was expressed as IC50 values, defined as the inhibitory dose that reduces the growth of the cells exposed to the tested compounds by 50%.

S. aureus 272123 (MRSA) [2] = test: Minimum inhibitory concentration (broth microdilution, CLSI); type: cell-based, Staphylococcus aureus; conditions: 18 h, visual inspection
Procedure: (§1) The compounds were further investigated against two Gram-positive strains, S. aureus ATCC 25923 (MSSA), used as the methicillin susceptible reference strain, and the methicillin- and ofloxacin-resistant S. aureus 272123 clinical isolate (MRSA), which was given by Prof. Dr. Leonard Amaral (Institute of Hygiene and Tropical Medicine, Lisbon, Portugal).
(§2) The minimum inhibitory concentrations (MICs) of compounds were determined in 96-well plates based on the Clinical and Laboratory Standard Institute guidelines (CLSI guidelines). The compounds were diluted in 100 μL of MHB. Then, 10^−4 dilution of an overnight bacterial culture in 100 μL of medium were added to each well, with the exception of the medium control wells.

E. coli AG100 A [3] = test: Real-time ethidium bromide accumulation (efflux pump inhibition); type: cell-based, Escherichia coli; conditions: compounds at ¼ MIC, EB 1 μg/mL, minute 30
Procedure: (§3) Since multidrug resistance EPs are very important factors contributing to multidrug resistance (MDR) in both Gram-positive and Gram-negative bacteria, the inhibition of these pumps could reverse the resistant phenotype and restore the activity of antibiotics. The effect of compounds on ethidium bromide (EB) accumulation was determined by the automated EB method. This assay was used to determine how much of the fluorescent dye and pump substrate EB was accumulated by the bacterial cells in the presence of the tested compounds. The real-time accumulation of EB was monitored for 30 min in both S. aureus and E. coli strains.
(§4) The accumulation of the efflux pump substrate EB was monitored by the automated EB method using a LightCycler real-time thermocycler (LightCycler 1.5, Roche, Indianapolis, IN, USA). An aliquot of an overnight culture of the S. aureus strains in TSB medium was inoculated into fresh TSB medium, and it was incubated until it reached an optical density (OD) of 0.6 at 600 nm. In the case of E. coli strains, the medium applied in the assay was LB broth; the preparation of the inoculum was similar to the one of S. aureus. The cells were washed with phosphate buffered saline (PBS; pH 7.4) and centrifuged at 13,000 × g for 3 min, the pellets were re-suspended in PBS (pH 7.4), and the OD was calibrated to 0.6 at 600 nm. The compounds were measured at ¼ MIC concentration (in double-concentrated form) to the EB solution in PBS. The final concentration of EB was determined according to the MIC and the fluorescent signal produced by this amount of EB. In the case of all strains, the concentration of EB was 1 μg/mL. Then, 10 μL of the EB solution plus the compound were pipetted into standard glass capillary tubes of 20 µL maximum volume (Roche, Indianapolis, USA), and 10 μL of bacterial culture (OD of 0.6 at 600 nm) were transferred to the capillaries. The capillaries containing the samples were placed into the carousel, and the fluorescence was monitored at the FL-2 channel in every minute on a real-time basis.
(§5) Based on the data obtained, the relative fluorescence index (RFI) of the last time point (minute 30) was determined as follows:RFI = (RFtreated − RFuntreated)/RFuntreated(1) where RFtreated is the relative fluorescence (RF) at the last time point of the EB retention curve in the presence of an inhibitor, and RFuntreated is the relative fluorescence at the last time point of the EB retention curve of the untreated control having the solvent control (DMSO).

E. coli AG100 [4] = test: Minimum inhibitory concentration (broth microdilution, CLSI); type: cell-based, Escherichia coli; conditions: E. coli AG100; 18 h, visual inspection; read-out: MIC
Procedure: The strains were donated by Prof. Dr. Hiroshi Nikaido (Department of Molecular and Cell Biology and Chemistry, University of California, Berkeley, CA, USA).
as §2

[5] = test system: Staphylococcus aureus ATCC 25923; test: as above; type: cell-based; conditions: S. aureus ATCC 25923; 18 h, visual inspection
Procedure: as §1, §2

E. coli AG100 A [6] = test: as above; type: cell-based, Escherichia coli; conditions: E. coli AG100 A (AcrAB-TolC deleted); 18 h, visual inspection
Procedure: Wild-type E. coli K-12 AG100 strain (argE3 thi-1 rpsL xyl mtl Δ(gal-uvrB) supE44) expressing the AcrAB TolC EP at its basal level and its AcrAB-TolC deleted mutant E. coli K-12 AG100 A strain. The strains were donated by Prof. Dr. Hiroshi Nikaido (Department of Molecular and Cell Biology and Chemistry, University of California, Berkeley, CA, USA).
as §2

[7] = test system: Enterobacter cloacae 31298; test: as above; type: cell-based; conditions: E. cloacae 31298
Procedure: (§6) The following bacterial strains were applied in the QS tests: C. violaceum 026 as sensor strain and E. cloacae 31298 isolated from clinical wound (used as N-acyl-homoserine lactone (AHL) producer); this strain induced pigment production by C. violaceum and is a model strain to study QS interactions.
as §2

[8] = test system: Chromobacterium violaceum 026; test: as above; type: cell-based; conditions: C. violaceum 026
Procedure: as §6, §2

[9] = test system: C. violaceum 026 sensor strain with AHL producer E. cloacae 31298; test: Quorum sensing inhibition (agar diffusion, violacein production); type: cell-based, Chromobacterium violaceum; conditions: disc with 10 μL of 1 mM stock; reduction of violacein zone
Procedure: as §6
LB* was applied for these experiments. The sensor strain C. violaceum 026 and the AHL producer strains E. cloacae 31298 were inoculated as parallel lines and incubated at room temperature for 24–48 h. The inhibition of bacterial communication was determined by the agar diffusion method. Filter paper discs (7.0 mm in diameter) were impregnated with 10 μL of stock solutions (1 mM) of the compounds in DMSO. The discs were placed between the parallel lines of the sensor and the AHL producer strains. The plates were kept at room temperature for another 24–48 h, and the interactions between the strains and compounds were determined as the reduction in the size of the zone of purple pigment (violacein) production in millimeters. PMZ was applied as a positive control.

E. coli AG100 [10] = test: Real-time ethidium bromide accumulation (efflux pump inhibition, AcrAB-TolC); type: cell-based, Escherichia coli; conditions: compounds at ¼ MIC, EB 1 μg/mL, minute 30
Procedure: as §3, §4, §5

S. aureus ATCC 25923 = test: Real-time ethidium bromide accumulation (efflux pump inhibition); type: cell-based, Staphylococcus aureus; conditions: compounds at ¼ MIC, EB 1 μg/mL, minute 30
Procedure: as §3, §4, §5

S. aureus 272123 (MRSA) [11] = test: as above; type: cell-based, Staphylococcus aureus; conditions: compounds at ¼ MIC (3 at 12.5 µM), VER at 25 µM, EB 1 μg/mL, minute 30
Procedure: as §3, §4, §5

[12] = test system: MRC-5 human embryonal lung fibroblast cell line; parameters: method as in earlier work; conditions: cited from earlier work
[13] = test system: MDR mouse T-cell lymphoma cells; parameters: method as in PMID 30396935; conditions: preliminary results; cited from earlier work
E. coli AG100 [14] = test: Resistance modulation (MIC reduction) assay with CIP and TET; type: cell-based, Escherichia coli; conditions: compound at ¼ MIC
Procedure: (§7) The resistance modulation effects of compounds with ciprofloxacin (CIP) and tetracycline (TET) antibiotics were evaluated by the MIC reduction method on the Gram-negative E. coli AG100, AG100 A, and the Gram-positive S. aureus ATCC and MRSA strains.
(§8) The chemosensitizing activity of benzoxazole-type ligands and their metal complexes was determined based on the MIC values of the antibiotics in the presence of sub-inhibitory concentrations of the compounds (¼ MIC) in both Gram-negative and Gram-positive strains. The MICs were determined in strains by the two-fold broth microdilution method in 96-well plates, using serial dilutions of TET and CIP. The first four rows contained two-fold dilutions of antibiotics, and combinations of the TET and CIP and tested compounds were transferred into the last four rows. The 10^−4 dilution of an overnight bacterial culture in 50 μL of MHB was then measured to each well, except for the medium control wells. The plates were kept at 37 °C for 18 h. MIC values of antibiotics and their combination with tested compounds were detected by visual inspection.

S. aureus MRSA 272123 = test: as above; type: cell-based, Staphylococcus aureus
Procedure: as §7, §8

SMILES: [Ag+].[Ag+].[O-]C(=Cc1nc2ccccc2o1)C(F)(F)F.[O-]C(=Cc1nc2ccccc2o1)C(F)(F)F [Compound 11]
- IC50 [1]: 65.9 µM
- MIC (S. aureus 272123 (MRSA) [2]): 12.5 µM
- Relative fluorescence index (RFI) (E. coli AG100 A [3]): 0.12
- MIC (E. coli AG100 [4]): 25 µM
- MIC [5]: 25 µM
- MIC (E. coli AG100 A [6]): 50 µM
- MIC [7]: >100 µM
- MIC [8]: >100 µM
- Inhibition zone (quorum sensing) [9]: 53 mm
- Relative fluorescence index (RFI) (E. coli AG100 [10]): 0.37
- Relative fluorescence index (RFI) (S. aureus ATCC 25923): 0.11
- Relative fluorescence index (RFI) (S. aureus 272123 (MRSA) [11]): −0.11

SMILES: N.N.[Cl][Pt][Cl] [cisplatin]
- IC50 [12]: 33.5 µM
- IC50 [13]: 11.2 µM

SMILES: CC(CN1c2ccccc2Sc2ccccc21)N(C)C (centres unmarked) [PMZ, promethazine, reference compound]
- Inhibition zone (quorum sensing) [9]: 16 mm

SMILES: O.O.[Ni+2].[O-]C(=Cc1nc2ccccc2o1)C(F)(F)F.[O-]C(=Cc1nc2ccccc2o1)C(F)(F)F [Compound 8]
- Cytotoxic effect (class in words) [1]: strong (IC50: 0–30)
- IC50 [1]: 12.2 µM
- MIC (S. aureus 272123 (MRSA) [2]): 6.25 µM
- Reduction of the MIC of CIP (E. coli AG100 [14]): 2 fold
- CIP MIC in combination with compounds (E. coli AG100 [14]; value is the MIC of ciprofloxacin): 0.008 µM
- Relative fluorescence index (RFI) (E. coli AG100 A [3]): −0.15
- MIC (E. coli AG100 [4]): 50 µM
- MIC [5]: 25 µM
- MIC (E. coli AG100 A [6]): 25 µM
- MIC [7]: >100 µM
- MIC [8]: >100 µM
- Relative fluorescence index (RFI) (E. coli AG100 [10]): 0.11
- Relative fluorescence index (RFI) (S. aureus ATCC 25923): −0.20
- Relative fluorescence index (RFI) (S. aureus 272123 (MRSA) [11]): −0.01
- Reduction of the MIC value of CIP (S. aureus MRSA 272123; compound at a quarter of the MIC): 2 fold
- CIP MIC in combination with compounds (S. aureus MRSA 272123; compound at ¼ MIC, value is the MIC of ciprofloxacin): 6.25 µM

SMILES: [O-]C(=Cc1nc2ccccc2o1)C(F)(F)F.[O-]C(=Cc1nc2ccccc2o1)C(F)(F)F.[Zn+2] [Compound 4]
- Cytotoxic effect (class in words) [1]: strong (IC50: 0–30)
- IC50 [1]: 17.5 µM
- MIC (S. aureus 272123 (MRSA) [2]): 6.25 µM
- Relative fluorescence index (RFI) (E. coli AG100 A [3]): −0.17
- MIC (E. coli AG100 [4]): 25 µM
- MIC [5]: 12.5 µM
- MIC (E. coli AG100 A [6]): 25 µM
- MIC [7]: >100 µM
- MIC [8]: >100 µM
- Inhibition zone (quorum sensing) [9]: 47 mm
- Relative fluorescence index (RFI) (E. coli AG100 [10]): −0.10
- Relative fluorescence index (RFI) (S. aureus ATCC 25923): −0.03
- Relative fluorescence index (RFI) (S. aureus 272123 (MRSA) [11]): −0.11
